This test addresses human PAD4 (hPAD4) (Homo sapiens (Human), UniProt Q9UM07). The test is described as follows: RFMS Human PAD4 Functional Assay 1. The note with it: RFMS assay 1; 5 nM hPAD4, 250 μM BAEE substrate, 50 μM calcium, 37° C. It is filed as biochemical. The method, boiled down:
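Citrullination product read by RapidFire triple-quad MRM against a modified-citrulline internal standard, after TCA stop and 30 min phenyl glyoxal step at 37 °C. Reaction: 250 μM BAEE, 5 nM human PAD4, 90 min at 37 °C, pH 7.5 HEPES buffer with 50 μM calcium and 5 μM TPEN, following 30 min compound–enzyme preincubation (max 50 μM).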
Chain of human PAD4 (hPAD4) (Q9UM07 whole entry): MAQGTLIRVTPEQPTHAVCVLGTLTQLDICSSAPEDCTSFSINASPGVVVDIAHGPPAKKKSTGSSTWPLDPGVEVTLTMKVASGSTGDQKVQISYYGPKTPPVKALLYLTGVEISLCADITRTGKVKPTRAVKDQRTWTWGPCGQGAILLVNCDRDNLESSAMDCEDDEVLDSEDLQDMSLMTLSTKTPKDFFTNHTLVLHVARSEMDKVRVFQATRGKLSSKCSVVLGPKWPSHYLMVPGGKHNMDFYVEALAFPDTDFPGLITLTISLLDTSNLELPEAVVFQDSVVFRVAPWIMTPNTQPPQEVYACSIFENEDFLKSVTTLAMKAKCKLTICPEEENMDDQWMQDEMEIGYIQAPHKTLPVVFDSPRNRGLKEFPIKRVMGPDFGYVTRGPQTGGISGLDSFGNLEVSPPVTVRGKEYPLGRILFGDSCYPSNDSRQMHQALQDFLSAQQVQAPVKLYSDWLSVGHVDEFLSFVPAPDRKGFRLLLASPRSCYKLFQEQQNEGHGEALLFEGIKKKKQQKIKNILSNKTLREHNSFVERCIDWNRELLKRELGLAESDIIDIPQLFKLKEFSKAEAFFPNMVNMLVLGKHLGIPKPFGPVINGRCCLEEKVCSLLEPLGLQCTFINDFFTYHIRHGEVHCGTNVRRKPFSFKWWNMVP
For orientation: IC50 means the concentration needed to halve the response being measured. As to `Cc1c(-c2cc3ccc(-c4ccc(C(N)=O)cc4)cc3n2CC2CC2)nn2cc(C(=O)N3C[C@H](N)C[C@@H](F)C3)ccc12` [Example 373, 4-(2-{6-[(3R,5R)-3-Amino-5-fluoropiperidine-1-carbonyl]-3-methylpyrazolo[1,5-a]pyridin-2-yl}-1-(cyclopropylmethyl)-1H-indol-6-yl)benzamide], the IC50 is 200 nM.

For the compound `Cc1c(-c2cc3ccc(-c4cccc(CNS(C)(=O)=O)c4)cc3n2CC2CC2)nn2cc(C(=O)N3C[C@H](N)C[C@@H](F)C3)ccc12` [Example 367, N-{[3-(2-{6-[(3R,5R)-3-Amino-5-fluoropiperidine-1-carbonyl]-3-methylpyrazolo[1,5-a]pyridin-2-yl}-1-(cyclopropylmethyl)-1H-indol-6-yl)phenyl]methyl}methanesulfonamide], the IC50 worked out at 1000 nM. Turning to `COc1cc(C(=O)N2CCC[C@@H](N)C2)cn2nc(-c3cc4cccc(OCC5CNC(=O)C5)c4n3CC3CC3)c(C)c12` (single isomer, unassigned) [Example 564], the IC50 amounted to 40 nM. As to `COc1cc(C(=O)N2C[C@H](N)C[C@@H](F)C2)cn2nc(-c3sc4cccc(-c5cnn(CCO)c5)c4c3CC3CC3)c(C)c12` [Example 621, ((3R,5R)-3-Amino-5-fluoropiperidin-1-yl)(2-(3-(cyclopropylmethyl)-4-(1-(2-hydroxyethyl)-1H-pyrazol-4-yl)benzo[b]thiophen-2-yl)-4-methoxy-3-methylpyrazolo[1,5-a]pyridin-6-yl)methanone], the IC50 came to 140 nM. Next, `COc1cc(C(=O)N2CC3CCC2[C@@H]3N)cc2oc(-c3cc4ccccc4n3CC3CC3)c(C)c12` (stereo partly drawn) [Example 148, ((7R)-7-Amino-2-azabicyclo[2.2.1]heptan-2-yl)(2-(1-(cyclopropylmethyl)-1H-indol-2-yl)-4-methoxy-3-methylbenzofuran-6-yl)methanone]: 442 nM. Consider `CO[C@@H](C)C(=O)N1CC(c2cccc3cc(-c4nn5cc(C(=O)N6CCC[C@@H](N)C6)ccc5c4C)n(CC4CC4)c23)C1` [Example 543, (S)-1-(3-(2-(6-((R)-3-aminopiperidine-1-carbonyl)-3-methylpyrazolo[1,5-a]pyridin-2-yl)-1-(cyclopropylmethyl)-1H-indol-7-yl)azetidin-1-yl)-2-methoxypropan-1-one], for which the IC50 turned out to be 630 nM. Regarding `COc1cc(C(=O)N2CC3CCC2[C@@H]3N)cc2oc(-c3cc4ccc(N5CCC(N)CC5)cc4n3CC3CC3)c(C)c12` (stereo partly drawn) [Example 160, ((7R)-7-Amino-2-azabicyclo[2.2.1]heptan-2-yl)(2-(6-(4-aminopiperidin-1-yl)-1-(cyclopropylmethyl)-1H-indol-2-yl)-4-methoxy-3-methylbenzofuran-6-yl)methanone], the half-maximal inhibitory concentration (IC50) stood at 48 nM.

For `Cc1c(-c2cc3ccc(-c4ccc5cn[nH]c5c4F)nc3n2CC2CC2)nn2cc(C(=O)N3CC4CCC3[C@@H]4N)ccc12` (stereo partly drawn) [Example 306, (7R)-2-{2-[1-(Cyclopropylmethyl)-6-(7-fluoro-1H-indazol-6-yl)-1H-pyrrolo[2,3-b]pyridin-2-yl]-3-methylpyrazolo[1,5-a]pyridine-6-carbonyl}-2-azabicyclo[2.2.1]heptan-7-amine], the concentration for half-maximal inhibition (IC50) was determined as 30 nM. As for `Cc1c(-c2cc3ccc(C(C)(O)C(F)(F)F)nc3n2CC2CC2)nn2cc(C(=O)N3CCC[C@@H](N)C3)ccc12` (mixture of isomers) [Example 382, 2-(2-{6-[(3R)-3-Aminopiperidine-1-carbonyl]-3-methylpyrazolo[1,5-a]pyridin-2-yl}-1-(cyclopropylmethyl)-1H-pyrrolo[2,3-b]pyridin-6-yl)-1,1,1-trifluoropropan-2-ol], the half-inhibitory concentration (IC50) was 150 nM. Regarding `Cc1c(-c2cc3ccc(N4CCC[C@@H](O)C4)nc3n2CC2CC2)nn2cc(C(=O)N3CC4CCC3[C@@H]4N)cc(F)c12` (stereo partly drawn) [Example 51], the IC50 is 109 nM. Turning to `Cc1c(-c2cc3ccc(-c4ccc5cn[nH]c5c4)nc3n2CC2CC2)nn2cc(C(=O)N3C[C@H](N)C[C@@H](F)C3)ccc12` [Example 321, (3R,5R)-1-{2-[1-(Cyclopropylmethyl)-6-(1H-indazol-6-yl)-1H-pyrrolo[2,3-b]pyridin-2-yl]-3-methylpyrazolo[1,5-a]pyridine-6-carbonyl}-5-fluoropiperidin-3-amine], the IC50 is 15000 nM. The figure for `Cc1c(-c2cc3ccc(N4CCC(N)CC4)cc3n2CC2CC2)oc2cc(C(=O)N3CC4CCC3[C@@H]4N)ccc12` (stereo partly drawn) [Example 191, ((7R)-7-Amino-2-azabicyclo[2.2.1]heptan-2-yl)(2-(6-(4-aminopiperidin-1-yl)-1-(cyclopropylmethyl)-1H-indol-2-yl)-3-methylbenzofuran-6-yl)methanone] is 20 nM; for `COc1cc(C(=O)N2C[C@H](N)C[C@@H](F)C2)cc2sc(-c3cc4ccc(-c5ccc(C(N)=O)c(F)c5)nc4n3CC3CC3)c(C)c12` [Example 141, 4-(2-(6-((3R,5R)-3-Amino-5-fluoropiperidine-1-carbonyl)-4-methoxy-3-methylbenzo[b]thiophen-2-yl)-1-(cyclopropylmethyl)-1H-pyrrolo[2,3-b]pyridin-6-yl)-2-fluorobenzamide] it is 179 nM.

For `COC1CN(c2ccc3cc(-c4oc5cc(C(=O)N6CC7CCC6[C@@H]7N)ccc5c4C)n(CC4CC4)c3c2)C1` (stereo partly drawn) [Example 190, ((7R)-7-Amino-2-azabicyclo[2.2.1]heptan-2-yl)(2-(1-(cyclopropylmethyl)-6-(3-methoxyazetidin-1-yl)-1H-indol-2-yl)-3-methylbenzofuran-6-yl)methanone], the IC50 is 58 nM.

For the compound `Cc1cc(-c2ccc3cc(-c4nn5cc(C(=O)N6CC7CCC6[C@@H]7N)ccc5c4C)n(CC4CC4)c3c2)c(F)cc1C(N)=O` (stereo partly drawn) [Example 331, 4-(2-{6-[(7R)-7-Amino-2-azabicyclo[2.2.1]heptane-2-carbonyl]-3-methylpyrazolo[1,5-a]pyridin-2-yl}-1-(cyclopropylmethyl)-1H-indol-6-yl)-5-fluoro-2-methylbenzamide], the IC50 is 60 nM. Next, `Cc1c(-c2cc3ccc(-c4ccc(C(N)=O)c(F)c4)nc3n2CC2CC2)nn2cc(C(=O)N3C[C@H](N)C[C@@H](F)C3)ccc12` [Example 84, 4-(2-(6-((3R,5R)-3-Amino-5-fluoropiperidine-1-carbonyl)-3-methylpyrazolo[1,5-a]pyridin-2-yl)-1-(cyclopropylmethyl)-1H-pyrrolo[2,3-b]pyridin-6-yl)-2-fluorobenzamide]: 610 nM.

For the compound `COc1cc(C(=O)N2C[C@H](N)C[C@@H](F)C2)cn2nc(-c3cc4ccc(N5CCC(N(C)C(C)=O)CC5)cc4n3CC3CC3)c(C)c12` [Example 243, N-[1-(2-{6-[(3R,5R)-3-Amino-5-fluoropiperidine-1-carbonyl]-4-methoxy-3-methylpyrazolo[1,5-a]pyridin-2-yl}-1-(cyclopropylmethyl)-1H-indol-6-yl)piperidin-4-yl]-N-methylacetamide], the IC50 was determined as 4120 nM. As to `COc1cc(C(=O)N2C[C@H](N)C[C@@H](F)C2)cn2nc(-c3cc4cccc(C5CCN(C(C)=O)CC5)c4n3CC3CC3)c(C)c12` [Example 411, 1-(4-(2-(6-((3R,5R)-3-Amino-5-fluoropiperidine-1-carbonyl)-4-methoxy-3-methylpyrazolo[1,5-a]pyridin-2-yl)-1-(cyclopropylmethyl)-1H-indol-7-yl)piperidin-1-yl)ethan-1-one], the IC50 was 110 nM.

These data come from patent US12473304B2, “Heterocyclic PAD4 inhibitors” (BRISTOL-MYERS SQUIBB COMPANY, priority 2020, dated 2025).
